{"source": "patent US20240408098A1", "about": "“COMBINATIONS OF KRAS G12D INHIBITORS WITH PI3Ka INHIBITORS AND RELATED METHODS OF TREATMENT” (MIRATI THERAPEUTICS, INC., priority 2021, published 2024)", "type_in_all_cases": "in vivo", "key": {"[1]": {"test_system": "LS180 colon cancer cell line", "test": "LS180 xenograft in nude/nude mice, average tumor volumes", "details": "for Average Tumor Volumes: nude/nude mice, 15 mg/kg QD", "method": "(§1) Immunocompromised nude/nude mice are inoculated in the right hind flank with cells harboring a KRas G12D mutation. When tumor volumes reach between 200-400 mm^3 in size, the mice are divided into four to five groups of 5 mice each. The first group is administered vehicle only. […] The fourth group is administered the single agent dose of the KRas G12D inhibitor using the twice daily for 2 sequential days followed by 5 days off schedule in combination with the single agent dose of Irinotecan. The treatment period varies from cell line to cell line but typically is between 15-22-days. Tumor volumes are measured using a caliper every two-three days and tumor volumes are calculated by the formula: […].\n(§2) 20 to 25 nude/nude mice per study were inoculated in the right hind limb with 5×10^6 LS180 cells, AsPC-1 cells, GP2D cells, or Panc 02.03 cells. When tumor volumes reached ˜200 mm3-400 mm3 (study day 0) 5 mice in each of the groups were administered i.p. vehicle only (10% captisol in 50 mM citrate buffer pH 5.0), 30 mg/kg of Kras G12D inhibitor MRTX1133 (10% captisol in 50 mM citrate buffer, pH 5.0) either on the twice daily schedule or the twice daily for 2 consecutive days followed by 5 days off schedule, 15 mg/kg once daily of the BYL719 (0.5% methylcellulos) PI3Ka inhibitor, or 30 mg/kg of Kras G12D inhibitor on either schedule and BYL719. Tumor volumes, measured at pre-specified days, for the five mice per group were averaged and are reported for LS180, AsPC-1, GP2D, and Panc 02.03 in Tables 1, 2, 3, and 4, respectively.\n25 nude/nude mice were inoculated with LS180 cells in the hind right flank. When the tumors reached ˜250 mm^3 five treatment groups were established with 5 mice per group."}, "[2]": {"test_system": "AsPC-1 pancreatic cancer cell line", "test": "AsPC-1 xenograft in nude/nude mice, average tumor volumes", "details": "for tumor growth inhibition: single agent; for Average Tumor Volumes: nude/nude mice, 15 mg/kg QD", "method": "as §1, §2\n30 nude/nude mice were inoculated with AsPC-1 cells in the hind right flank. When the tumors reached ˜300 mm^3 six treatment groups were established with 5 mice per group."}, "[3]": {"test_system": "GP2D colorectal cancer cell line", "test": "GP2D xenograft in nude/nude mice, average tumor volumes", "method": "as §1\nas §2, with “respectively. […]” for “respectively.”"}, "[4]": {"test_system": "PANC0203 pancreatic cancer cell line", "test": "Panc 02.03 xenograft in nude/nude mice, average tumor volumes", "details": "15 mg/kg QD", "method": "as §1, §2\n20 nude/nude mice were inoculated with Panc 02.03 cells in the hind right flank. When the tumors reached ˜300 mm^3 four treatment groups were established with 5 mice per group."}}, "data": [{"compound": "Cc1nc(NC(=O)N2CCC[C@H]2C(N)=O)sc1-c1ccnc(C(C)(C)C(F)(F)F)c1", "note": "[BYL719, (2S)-N1-[4-Methyl-5-[2-(2,2,2-trifluoro-1,1-dimethylethyl)-4-pyridinyl]-2-thiazolyl]-1,2-pyrrolidinedicarboxamide]", "values": [{"measurement": "tumor growth inhibition", "setting": "[1]; 15 mg/kg once daily, single agent, Day 15", "value": 44, "unit": "%"}, {"measurement": "Average Tumor Volumes", "setting": "[1]; Study Day 1", "value": 273.184, "unit": "mm^3"}, {"measurement": "Average Tumor Volumes", "setting": "[1]; Study Day 4", "value": 501.45, "unit": "mm^3"}, {"measurement": "Average Tumor Volumes", "setting": "[1]; Study Day 8", "value": 799.338, "unit": "mm^3"}, {"measurement": "Average Tumor Volumes", "setting": "[1]; Study Day 11", "value": 1016.09, "unit": "mm^3"}, {"measurement": "Average Tumor Volumes", "setting": "[1]; Study Day 15", "value": 1225.468, "unit": "mm^3"}, {"measurement": "tumor growth inhibition", "setting": "[2]; 15 mg/kg once daily, Day 34", "value": 0, "unit": "%"}, {"measurement": "Average Tumor Volumes", "setting": "[2]; Study Day 1", "value": 331.29, "unit": "mm^3"}, {"measurement": "Average Tumor Volumes", "setting": "[2]; Study Day 6", "value": 429.172, "unit": "mm^3"}, {"measurement": "Average Tumor Volumes", "setting": "[2]; Study Day 9", "value": 473.138, "unit": "mm^3"}, {"measurement": "Average Tumor Volumes", "setting": "[2]; Study Day 13", "value": 531.394, "unit": "mm^3"}, {"measurement": "Average Tumor Volumes", "setting": "[2]; Study Day 16", "value": 580.446, "unit": "mm^3"}, {"measurement": "Average Tumor Volumes", "setting": "[2]; Study Day 20", "value": 688.564, "unit": "mm^3"}, {"measurement": "Average Tumor Volumes", "setting": "[2]; Study Day 23", "value": 742.98, "unit": "mm^3"}, {"measurement": "Average Tumor Volumes", "setting": "[2]; Study Day 27", "value": 918.424, "unit": "mm^3"}, {"measurement": "Average Tumor Volumes", "setting": "[2]; Study Day 30", "value": 1283, "unit": "mm^3"}, {"measurement": "Average Tumor Volumes", "setting": "[2]; Study Day 34", "value": 1622, "unit": "mm^3"}, {"measurement": "Average Tumor Volumes", "setting": "[3]; 15 mg/kg QD, Study Day 1", "value": 307.604, "unit": "mm^3"}, {"measurement": "Average Tumor Volumes", "setting": "[3]; 15 mg/kg QD, Study Day 7", "value": 369.474, "unit": "mm^3"}, {"measurement": "Average Tumor Volumes", "setting": "[3]; 15 mg/kg QD, Study Day 10", "value": 395.68, "unit": "mm^3"}, {"measurement": "Average Tumor Volumes", "setting": "[3]; 15 mg/kg QD, Study Day 14", "value": 467.526, "unit": "mm^3"}, {"measurement": "Average Tumor Volumes", "setting": "[3]; 15 mg/kg QD, Study Day 17", "value": 546.962, "unit": "mm^3"}, {"measurement": "Average Tumor Volumes", "setting": "[3]; 15 mg/kg QD, Study Day 21", "value": 681.056, "unit": "mm^3"}, {"measurement": "Average Tumor Volumes", "setting": "[3]; 15 mg/kg QD, Study Day 26", "value": 901.144, "unit": "mm^3"}, {"measurement": "Average Tumor Volumes", "setting": "[3]; 15 mg/kg QD, Study Day 28", "value": 1053.732, "unit": "mm^3"}, {"measurement": "Average Tumor Volumes", "setting": "[3]; 15 mg/kg QD, Study Day 31", "value": 1102.87, "unit": "mm^3"}, {"measurement": "Average Tumor Volumes", "setting": "[3]; 15 mg/kg QD, Study Day 35", "value": 1202.89, "unit": "mm^3"}, {"measurement": "Average Tumor Volumes", "setting": "[4]; Study Day 1", "value": 330.188, "unit": "mm^3"}, {"measurement": "Average Tumor Volumes", "setting": "[4]; Study Day 4", "value": 341.414, "unit": "mm^3"}, {"measurement": "Average Tumor Volumes", "setting": "[4]; Study Day 8", "value": 367.35, "unit": "mm^3"}, {"measurement": "Average Tumor Volumes", "setting": "[4]; Study Day 11", "value": 487.664, "unit": "mm^3"}, {"measurement": "Average Tumor Volumes", "setting": "[4]; Study Day 15", "value": 572.82, "unit": "mm^3"}, {"measurement": "Average Tumor Volumes", "setting": "[4]; Study Day 18", "value": 680.306, "unit": "mm^3"}, {"measurement": "Average Tumor Volumes", "setting": "[4]; Study Day 22", "value": 774.992, "unit": "mm^3"}]}, {"compound": "C#Cc1c(F)ccc2cc(O)cc(-c3ncc4c(N5C[C@H]6CC[C@@H](C5)N6)nc(OC[C@@]56CCCN5C[C@H](F)C6)nc4c3F)c12", "note": "[MRTX1133, 4-(4-((1R,5S)-3,8-diazabicyclo[3.2.1]octan-3-yl)-8-fluoro-2-(((2R,7aS)-2-fluorohexahydro-1H-pyrrolizin-7a-yl)methoxy)pyrido[4,3-d]pyrimidin-7-yl)-5-ethynyl-6-fluoronaphthalen-2-ol]", "values": [{"measurement": "tumor growth inhibition", "setting": "[2]; 30 mg/kg BID twice weekly, day 34", "value": 43, "unit": "%"}, {"measurement": "Average Tumor Volumes", "setting": "[3]; 30 mg/kg BID Daily i.p., Study Day 1", "value": 300.778, "unit": "mm^3"}, {"measurement": "Average Tumor Volumes", "setting": "[3]; 30 mg/kg BID Daily i.p., Study Day 7", "value": 263.132, "unit": "mm^3"}, {"measurement": "Average Tumor Volumes", "setting": "[3]; 30 mg/kg BID Daily i.p., Study Day 10", "value": 237.628, "unit": "mm^3"}, {"measurement": "Average Tumor Volumes", "setting": "[3]; 30 mg/kg BID Daily i.p., Study Day 14", "value": 221.728, "unit": "mm^3"}, {"measurement": "Average Tumor Volumes", "setting": "[3]; 30 mg/kg BID Daily i.p., Study Day 17", "value": 221.788, "unit": "mm^3"}, {"measurement": "Average Tumor Volumes", "setting": "[3]; 30 mg/kg BID Daily i.p., Study Day 21", "value": 242.56, "unit": "mm^3"}, {"measurement": "Average Tumor Volumes", "setting": "[3]; 30 mg/kg BID Daily i.p., Study Day 26", "value": 254.57, "unit": "mm^3"}, {"measurement": "Average Tumor Volumes", "setting": "[3]; 30 mg/kg BID Daily i.p., Study Day 28", "value": 307.03, "unit": "mm^3"}, {"measurement": "Average Tumor Volumes", "setting": "[3]; 30 mg/kg BID Daily i.p., Study Day 31", "value": 333.20, "unit": "mm^3"}, {"measurement": "Average Tumor Volumes", "setting": "[3]; 30 mg/kg BID Daily i.p., Study Day 35", "value": 358.75, "unit": "mm^3"}]}]}
